Results published in ChEMBL document CHEMBL6177976, “Important Role of Triphenylamine in Modulating the Antibacterial Performance Relationships of Antimicrobial Peptide Mimics by Alkyl Chain Engineering” (J Med Chem, 2025).
Calls of active or inactive are those of the source. No cut-off for these calls is given here.

Legend:
[1] = system: Cell membrane; experiment: Induction of cytoplasmic membrane permeabilization in Staphylococcus aureus assessed as increase in fluorescence intensity at 16 uM incubated for […] by CLSM analysis
[2] = system: Cell membrane; experiment: Induction of cell membrane damage in Staphylococcus aureus at 20 uM incubated for 60 mins by TEM analysis; type: subcellular
[3] = system: Cell membrane; experiment: Induction of Inner membrane integrity in Staphylococcus aureus at 128 uM measured for 40 mins T12 dye based analysis; type: subcellular
[4] = system: Staphylococcus aureus; experiment: Induction of ROS accumulation in Staphylococcus aureus assessed as fold increase in fluorescence intensity at 1 uM by DCFH-DA staining based analysis; type: functional
[5] = system: Staphylococcus aureus; experiment: Bactericidal activity against Staphylococcus aureus assessed as reduction in bacterial colony count measured at 2 hrs; type: functional, organism-based
[6] = system: Staphylococcus aureus; experiment: Antibacterial activity against Staphylococcus aureus incubated for 90 mins; type: functional, organism-based; conditions: dose 10.0 µM
[7] = system: Cell membrane; experiment: Induction of Inner membrane integrity in Staphylococcus aureus measured for 40 mins in presence of phosphatidylglycerol by T12 dye based analysis; type: subcellular; conditions: dose 128.0 µM
[8] = system: Staphylococcus aureus; experiment: Antibiofilm activity in Staphylococcus aureus assessed as inhibition of biofilm formation incubated for 48 hrs in presence of white light irradiation; type: functional, organism-based; conditions: dose <= 32.0 µM
[9] = system: Staphylococcus aureus; experiment: Antibacterial activity against Staphylococcus aureus assessed as increase in fluorescence intensity incubated for 20 mins; type: functional, organism-based
[10] = system: Staphylococcus aureus; experiment: Induction of ROS accumulation in Staphylococcus aureus assessed as increase in singlet oxygen level by measuring reduction in HPF absorption peak at 10 uM irradiated with 650 nm 50 mW/cm2 light for 5 mins; type: functional, organism-based
[11] = system: Escherichia coli; experiment: Antibacterial activity against Escherichia coli assessed as change in surface zeta potential at 16 uM incubated for 20 mins; type: functional, organism-based
[12] = Hemolytic activity in sheep red blood cells assessed as hemolysis; type: toxicity, cell-based, Ovis aries, Erythrocyte
[13] = system: Staphylococcus aureus; experiment: Antibiofilm activity in Staphylococcus aureus assessed as inhibition of biofilm formation incubated for 48 hrs by SYTO 9 staining based CLSM analysis; type: functional, organism-based
[14] = system: Staphylococcus aureus; experiment: Antibacterial activity against methicillin resistant Staphylococcus aureus infected in Kunming mouse model of skin wound infection assessed as effect on wound healing rate at 5 mg/kg administered for 7 days in presence of white light irradiation; type: functional, organism-based; conditions: time 7.0 day
[15] = system: Staphylococcus aureus; experiment: Antibacterial activity against Staphylococcus aureus at 0.5 times MIC measured after 20 passages; type: functional, organism-based
[16] = system: RAW264.7; experiment: Cytotoxicity against mouse RAW264.7 cells at 32 uM incubated for 24 hrs by CCK-8 assay; type: toxicity, cell-based; conditions: raw264.7, 24 h
[17] = system: Staphylococcus aureus; experiment: Antibacterial activity against methicillin resistant Staphylococcus aureus infected in Kunming mouse model of skin wound infection assessed as effect on wound healing rate at 5 mg/kg administered for 7 days; type: functional, organism-based; conditions: time 7.0 day
[18] = system: Staphylococcus aureus; experiment: Antibiofilm activity in Staphylococcus aureus assessed as inhibition of biofilm formation at 32 uM incubated for 48 hrs in presence of white light irradiation; type: functional; conditions: light or radiation study
[19] = system: Staphylococcus aureus; experiment: Bactericidal activity against Staphylococcus aureus assessed as bacterial viability at 4 uM by plate counting method relative to control; type: functional
[20] = system: Escherichia coli; experiment: Antibacterial activity against Escherichia coli assessed as effect on bacterial growth incubated for 90 mins; type: functional, organism-based
[21] = system: Staphylococcus aureus; experiment: Bactericidal activity against Staphylococcus aureus assessed as bacterial viability at 4 uM pretreated with compound for 60 mins followed by white light irradiation for 30 mins by plate counting method; type: functional; conditions: time 90 min, 1.5 h
[22] = system: Staphylococcus aureus; experiment: Antibiofilm activity in Staphylococcus aureus assessed as inhibition of biofilm formation incubated for 48 hrs in presence of white light irradiation by SYTO 9 staining based CLSM analysis; type: functional, organism-based
[23] = system: Staphylococcus aureus; experiment: Antipersister-activity against Staphylococcus aureus assessed as reduction in bacterial colony count preincubated with 100 times of MIC of rifampicin for 24 hrs followed by compound addition and measured after 8 hrs by drop plate counting method; type: functional, organism-based
[24] = system: Staphylococcus aureus; experiment: Drug resistance, ratio of MIC for Staphylococcus aureus after 20 passages to MIC for Staphylococcus aureus after initial exposure; type: functional
[25] = system: Staphylococcus aureus; experiment: Antibiofilm activity in Staphylococcus aureus assessed as inhibition of biofilm formation at 8 uM incubated for 48 hrs; type: functional, organism-based
[26] = system: Staphylococcus aureus; experiment: Antibacterial activity against Staphylococcus aureus assessed as change in surface zeta potential at 16 uM incubated for 20 mins; type: functional, organism-based
[27] = system: Staphylococcus aureus; experiment: Bactericidal activity against methicillin-resistant Staphylococcus aureus assessed as bacterial viability at 4 uM pretreated with compound for 60 mins followed by white light irradiation for 30 mins by plate counting method; type: functional; conditions: time 90 min, 1.5 h
[28] = system: Cell membrane; experiment: Induction of Inner membrane integrity in Staphylococcus aureus measured for 40 mins in presence of cardiolipin by T12 dye based analysis; type: subcellular; conditions: dose 128.0 µM
[29] = system: HeLa; experiment: Cytotoxicity against human HeLa cells at 32 uM incubated for 24 hrs by CCK-8 assay; type: functional, cell-based
[30] = system: Staphylococcus aureus; experiment: Antibacterial activity against methicillin resistant Staphylococcus aureus assessed as bacterial viability at 4 uM incubated for 90 mins relative to control; type: functional; conditions: 1.5 h
[31] = system: Staphylococcus aureus; experiment: Antibacterial activity against methicillin resistant Staphylococcus aureus assessed as bacterial viability up to 12 uM; type: functional, organism-based
[32] = system: Escherichia coli; experiment: Antibacterial activity against Escherichia coli incubated for 90 mins; type: functional, organism-based
[33] = system: Cell membrane; experiment: Induction of cytoplasmic membrane permeabilization in Staphylococcus aureus assessed as increase in fluorescence intensity at 16 uM incubated for […] by SYTO 9 staining based analysis
[34] = system: Staphylococcus aureus; experiment: Induction of ROS accumulation in Staphylococcus aureus assessed as increase in singlet oxygen level by measuring reduction in ABDA absorption peak at 10 uM irradiated with 650 nm 50 mW/cm2 light for 5 mins; type: functional, organism-based
[35] = system: Cell membrane; experiment: Induction of cell membrane damage in Staphylococcus aureus at 20 uM incubated for 60 mins by SEM analysis; type: subcellular
[36] = system: HeLa; experiment: Cytotoxicity against human HeLa cells at 32 uM measured after 60 mins by Calcein AM assay; type: functional, cell-based
[37] = system: Cell membrane; experiment: Induction of cell membrane damage in Staphylococcus aureus assessed as increase in fluorescence intensity at 128 uM measured for 40 mins propidium iodide staining based analysis
[38] = system: Staphylococcus aureus; experiment: Antibacterial activity against methicillin resistant Staphylococcus aureus assessed as bacterial viability at 10 uM incubated for 90 mins relative to control; type: functional; conditions: 1.5 h
[39] = system: HeLa; experiment: Cytotoxicity against human HeLa cells assessed as dead cells at 32 uM measured after 24 hrs by PI staining based analysis; type: functional, cell-based
[40] = system: HeLa; experiment: Cytotoxicity against human HeLa cells at 32 uM incubated for 24 hrs by Calcein AM assay; type: functional, cell-based
[41] = system: Cell membrane; experiment: Induction of Inner membrane integrity in Staphylococcus aureus at 128 uM measured for 40 mins in presence of phosphatidylglycerol by T12 dye based analysis; type: subcellular
[42] = system: Cell membrane; experiment: Induction of Inner membrane integrity in Staphylococcus aureus at 128 uM measured for 40 mins in presence of cardiolipin by T12 dye based analysis
[43] = system: Cell membrane; experiment: Induction of cell membrane damage in Staphylococcus aureus assessed as decrease in fluorescence intensity at 128 uM measured for 40 mins propidium iodide staining based analysis; type: subcellular

Structure (SMILES): C[N+](C)(C)CCCOc1ccc(/C=C/c2ccc(N(c3ccccc3)c3ccccc3)cc2)cc1.[Br-]
- Activity [1]: Active
- Activity [2]: Active
- Activity [3]: Active
- fold change (FC) [4]: 100
- Activity [5]: Active
- Activity [6]: Active
- Activity [7]: Dose-dependent-effect
- Activity [8]: Dose-dependent-effect
- Activity [9]: Active
- Activity [10]: Active
- Activity [11]: Active
- HC50 [12]: > 900 µM
- Activity [13]: Active
- Activity [14]: Active
- Activity [15]: Active
- Activity [16]: Non-toxic
- Activity [17]: Active
- inhibition at 32 µM [18]: 100%
- Activity [19]: 11%
- Activity [20]: inactive
- Activity [21]: 0.5%
- Activity [22]: Active
- Activity [23]: Active
- Ratio [24]: 64
- Activity [25]: Active
- Activity [26]: Active
- Activity [27]: ~100%
- Activity [28]: Dose-dependent-effect
- Activity [29]: Active
- Activity [30]: 3%
- Activity [31]: Active
- Activity [32]: Active
- Activity [33]: Active
- Activity [34]: inactive
- Activity [35]: Active

Structure (SMILES): CCCCCCCC[N+](C)(C)CCCOc1ccc(/C=C/c2ccccc2)cc1.[Br-]
- Activity [3]: Active
- Activity [36]: inactive
- Activity [6]: Active
- Activity [7]: Dose-dependent-effect
- Activity [37]: Active
- Activity [38]: 4%
- Activity [28]: Dose-dependent-effect
- Activity [31]: Active
- Activity [39]: Active
- Activity [32]: Active
- Activity [40]: inactive
- Activity [35]: Active

Structure (SMILES): C[N+](C)(C)CCCOc1ccc(/C=C/c2ccccc2)cc1.[Br-]
- Activity [41]: inactive
- Activity [3]: Active
- Activity [6]: Active
- Activity [42]: inactive
- Activity [37]: Active
- Activity [38]: 60%
- Activity [29]: Active
- Activity [31]: Active
- Activity [32]: Active

Structure (SMILES): CCCC[N+](C)(C)CCCOc1ccc(/C=C/c2ccccc2)cc1.[Br-]
- Activity [41]: inactive
- Activity [3]: Active
- Activity [6]: Active
- Activity [42]: inactive
- Activity [37]: Active
- Activity [38]: 55%
- Activity [29]: Active
- Activity [31]: Active
- Activity [32]: Active

Structure (SMILES): CCCCCCCCCC[N+](C)(C)CCCOc1ccc(/C=C/c2ccccc2)cc1.[Br-]
- Activity [3]: Active
- Activity [6]: Active
- Activity [7]: Dose-dependent-effect
- Activity [37]: Active
- Activity [38]: 0.1%
- Activity [28]: Dose-dependent-effect
- Activity [31]: Active
- Activity [32]: Active
- Activity [35]: Active

Structure (SMILES): CCCCCCCCCC[N+](C)(C)CCCOc1ccc(/C=C/c2ccc(N(c3ccccc3)c3ccccc3)cc2)cc1.[Br-]
- Activity [41]: inactive
- Activity [3]: Active
- Activity [6]: Active
- Activity [11]: Active
- Activity [20]: inactive
- Activity [42]: inactive
- Activity [43]: Active
- Activity [30]: 52%
- Activity [31]: Active
- Activity [32]: Active

Structure (SMILES): CCCCCCCC[N+](C)(C)CCCOc1ccc(/C=C/c2ccc(N(c3ccccc3)c3ccccc3)cc2)cc1.[Br-]
- Activity [41]: inactive
- Activity [3]: Active
- Activity [36]: inactive
- Activity [6]: Active
- Activity [11]: Active
- HC50 [12]: 75 µM
- Activity [20]: inactive
- Activity [42]: inactive
- Activity [43]: Active
- Activity [30]: 28%
- Activity [31]: Active
- Activity [39]: Active
- Activity [32]: Active
- Activity [40]: inactive

Structure (SMILES): CCCC[N+](C)(C)CCCOc1ccc(/C=C/c2ccc(N(c3ccccc3)c3ccccc3)cc2)cc1.[Br-]
- Activity [1]: Active
- Activity [3]: Active
- Activity [6]: Active
- Activity [7]: Dose-dependent-effect
- Activity [11]: Active
- Activity [20]: inactive
- Activity [26]: Active
- Activity [28]: Dose-dependent-effect
- Activity [29]: Active
- Activity [30]: 2%
- Activity [31]: Active
- Activity [32]: Active
- Activity [33]: Active
- Activity [35]: Active
